Measured values taken from publication PMC6467689 (ACS infectious diseases, 2018).

Columns and labels:
MukB [1] = molecular target: T1, MukB (Escherichia coli, UniProt P22523); assay: magnetic bead DNA bridging pull-down; assay type: biochemical; conditions: 20 mM HEPES pH 7.7, 50 mM NaCl, 2 mM MgCl2, 5% glycerol, 1 mM DTT
MukB [2] = molecular target: T1, MukB; assay: SPR; assay type: binding; conditions: 25 uM compound, 20 mM HEPES-KOH pH 7.0, 50 mM NaCl, 0.5% DMSO

T1 sequence (P22523 whole entry): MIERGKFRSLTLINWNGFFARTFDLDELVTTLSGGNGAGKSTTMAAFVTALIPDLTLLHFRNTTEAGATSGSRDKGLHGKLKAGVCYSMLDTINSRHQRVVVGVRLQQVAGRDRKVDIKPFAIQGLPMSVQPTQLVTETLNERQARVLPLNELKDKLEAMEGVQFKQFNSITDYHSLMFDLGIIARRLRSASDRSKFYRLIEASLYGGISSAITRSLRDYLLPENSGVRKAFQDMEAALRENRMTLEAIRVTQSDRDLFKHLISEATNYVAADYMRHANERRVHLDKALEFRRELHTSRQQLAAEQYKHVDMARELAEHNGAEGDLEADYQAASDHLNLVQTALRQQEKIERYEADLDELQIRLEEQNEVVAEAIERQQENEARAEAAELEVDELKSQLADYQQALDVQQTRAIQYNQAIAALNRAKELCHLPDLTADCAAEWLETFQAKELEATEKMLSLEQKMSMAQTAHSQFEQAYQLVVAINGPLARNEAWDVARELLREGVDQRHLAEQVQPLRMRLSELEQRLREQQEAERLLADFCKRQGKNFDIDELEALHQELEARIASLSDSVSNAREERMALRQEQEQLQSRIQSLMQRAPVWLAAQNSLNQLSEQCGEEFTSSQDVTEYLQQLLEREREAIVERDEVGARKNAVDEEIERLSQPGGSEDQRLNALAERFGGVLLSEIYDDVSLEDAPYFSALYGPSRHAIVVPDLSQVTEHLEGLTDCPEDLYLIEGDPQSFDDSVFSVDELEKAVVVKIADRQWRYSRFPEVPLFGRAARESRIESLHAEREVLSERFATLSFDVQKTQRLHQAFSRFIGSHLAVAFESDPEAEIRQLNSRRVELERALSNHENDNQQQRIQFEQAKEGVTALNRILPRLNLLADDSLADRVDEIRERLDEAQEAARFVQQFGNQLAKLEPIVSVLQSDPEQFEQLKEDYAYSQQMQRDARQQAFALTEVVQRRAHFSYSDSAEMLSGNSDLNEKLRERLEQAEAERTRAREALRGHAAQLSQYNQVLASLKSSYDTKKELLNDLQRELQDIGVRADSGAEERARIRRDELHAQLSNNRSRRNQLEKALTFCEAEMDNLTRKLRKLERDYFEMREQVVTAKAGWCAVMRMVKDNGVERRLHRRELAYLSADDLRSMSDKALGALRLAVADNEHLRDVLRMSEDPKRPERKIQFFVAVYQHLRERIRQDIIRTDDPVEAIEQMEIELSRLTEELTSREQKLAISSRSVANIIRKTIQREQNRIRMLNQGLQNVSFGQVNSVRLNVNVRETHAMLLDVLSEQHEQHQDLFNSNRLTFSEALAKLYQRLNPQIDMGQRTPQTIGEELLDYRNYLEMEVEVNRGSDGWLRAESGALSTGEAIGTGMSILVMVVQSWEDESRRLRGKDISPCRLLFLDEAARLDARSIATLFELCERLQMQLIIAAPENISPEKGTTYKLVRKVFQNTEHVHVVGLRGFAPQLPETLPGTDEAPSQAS

| Compound | inhibition of DNA bridging (MukB [1]) | SPR (Biacore, MukB immobilised on CM5 chip) (MukB [2]) |
| --- | --- | --- |
| COC1=C(N)C(=O)c2nc(-c3nc(C(=O)O)c(C)c(-c4ccc(OC)c(OC)c4O)c3N)ccc2C1=O [NSC45383] | Michellamine B, NSC71795 and, to a smaller degree, NSC45383, inhibit MukB mediated DNA bridging | A much weaker binding could be detected for NSC71795 (ellipticine) and NSC45383 (streptonigrin) |
| COc1cc(C)cc2c(-c3c(O)cc(O)c4c3C[C@H](C)N[C@H]4C)cc(-c3cc(-c4c(O)cc(O)c5c4C[C@H](C)N[C@H]5C)c4cc(C)cc(OC)c4c3O)c(O)c12 [NSC661755, Michellamine B] | Michellamine B, NSC71795 and, to a smaller degree, NSC45383, inhibit MukB mediated DNA bridging | – |
| Cc1c2ccncc2c(C)c2c1[nH]c1ccccc12 [NSC71795] | Michellamine B, NSC71795 and, to a smaller degree, NSC45383, inhibit MukB mediated DNA bridging | A much weaker binding could be detected for NSC71795 (ellipticine) and NSC45383 (streptonigrin) |
